Laboratory results: PubChem BioAssay AID2060499 (Molecular Pharmacology Branch, DTP, NCI, 2025)
pIC50: −log10 of the molar value.

System: 777334-354-R2-J4-PDC tumor spheroids with HUVEC/MSC, viability
Assay: Anticancer human tumor 777334-354-R2-J4-PDC patient-derived pancreatic adenocarcinoma cell line growth inhibition [GQUAD]
Conditions: for pIC50: curve of first compound; for viability, T/C: stronger effect = lower value; active means viability on the fitted dose curve at most 10% of control; inactive means the rest
From the text: DNA G-quadruplex Stabilizer Agents in Combinations in Complex Spheroids
A high-throughput screen of multi-cell type tumor spheroids was designed to identify active combinations of DNA G-quadruplex stabilizer agents and targeted small molecules. Complex spheroids include a stromal component modeled by human endothelial cells (HUVEC) and fibroblasts modeled by human mesenchymal stem cells (MSCs). The concentration ranges selected for each drug and investigational agent were based upon clinically achievable concentrations if the clinical Cmax of the agent was known.
Compounds. The drugs and investigational agents: pidnarulex (CX-5461; NSC782164), APTO-253 (NSC789042), BRACO-19 (NSC847499), peposertib (NSC802822), ceralasertib (NSC780249), elimusertib (NSC800525), camonsertib (NSC841442), AZD-1390 (NSC803789), olaparib (NSC753686), talazoparib (NSC767125), ART-558 (NSC835418), sotorasib (NSC818433), MRTX-1133 (NSC836407), SN-38 (NSC673596), topotecan (NSC609699), etoposide (NSC141540), doxorubicin (NSC123127), gemcitabine (NSC613327), 5-fluorouracil (NSC19893), paclitaxel (NSC125973), vemurafenib (NSC761431), panobinostat (NSC761190), R-306465 (JNJ-16241199; NSC773264), adavosertib (NSC754352), TP-3654 (NSC805149), carboplatin (NSC241240), KSQ-4279 (NSC840948), and staurosporine (NSC755774) were obtained from the National Cancer Institute (NCI) Developmental Therapeutics Program Chemical Repository (34). The FDA-approved anticancer drug set is available from the NCI Developmental Therapeutics Program. […] The stock solutions were prepared in dimethyl sulfoxide (DMSO, Sigma-Aldrich, St. Louis, MO, cat. D2650) at 800-fold the tested concentration and stored at -70 degrees C prior to their use. All drugs and investigational agents were tested over a range starting from a high concentration at or near the clinical Cmax and decreasing in half-log increments. If the clinical Cmax for an agent had not been determined, the highest concentration tested was 10 microM.
2.3 Cell Culture. All cells were maintained in an incubator at 37 degrees C and 5% CO2 with 95% humidity. The PDC lines were cultured according to standard operating procedures established by the NCI PDMR. All PDCs were thawed and cultured in Matrigel-coated flasks prepared with a working solution of 1X Ham's F-12 nutrient mix, without supplementation (Invitrogen, cat. 11765054), 100 U/mL penicillin-streptomycin (Invitrogen, cat. 15140122), and 2.5% Matrigel (Corning Inc., cat. 354248) for the first three passages. The 857933-349-R-J2-PDC line was cultured in 6C/Colon 1B media, which includes advanced DMEM/F-12 (Thermo Fisher Scientific, cat. 12634028), 10 mM HEPES (Thermo Fisher Scientific, cat. 15630080), 1X GlutaMAX supplement (Thermo Fisher Scientific, cat. 35050061), 0.1 mg/mL primocin (InvivoGen, cat. ant-pm-2), 10% defined fetal bovine serum, heat inactivated (HyClone Laboratories Inc., cat. SH30070.03HI), 50% L-WRN conditioned media (ATCC, cat. CRL-3276), 1.25 mM N-Acetyl-L-cysteine (Sigma-Aldrich, cat. A9165), 10 mM nicotinamide (Sigma-Aldrich, cat. N0636), 1X B-27 supplement (Thermo Fisher Scientific, cat. 17504044), 1X N-2 supplement (Thermo Fisher Scientific, cat. 17502048), 10 microM Y-27632 dihydrochloride (Tocris Bioscience, cat. 1254), and 50 ng/mL human EGF recombinant protein (Thermo Fisher Scientific, cat. PHG0311). The 485176-168-R4-J1-PDC line was cultured in Panc media, which includes all 6C/Colon 1B media components plus 100 ng/mL human FGF-10 (Thermo Fisher Scientific, cat. 100-26), 500 nM SB-431542 (Selleckchem, cat. S1067), and gastrin (Tocris, cat. 3006).
[…]

[1] = second compound 0.0316 µM, first compound 0.0316 µM
[2] = second compound 0.0316 µM, first compound 0.316 µM
[3] = second compound 0.1 µM, first compound 0.0316 µM
[4] = second compound 0.1 µM, first compound 0.316 µM
[5] = second compound 0.316 µM, first compound 0.0316 µM
[6] = second compound 0.316 µM, first compound 0.316 µM
[7] = second compound 1 µM, first compound 0.0316 µM
[8] = second compound 1 µM, first compound 0.316 µM
[9] = second compound 3.16 µM, first compound 0.0316 µM
[10] = second compound 3.16 µM, first compound 0.316 µM
[11] = second compound 10 µM, first compound 0.0316 µM
[12] = second compound 10 µM, first compound 0.316 µM
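Further: spheroids exposed to compounds for 7 days before readout.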

CC[C@@]1(O)C(=O)OCc2c1cc1n(c2=O)Cc2cc3c(CN(C)C)c(O)ccc3nc2-1 + CN(C)c1ccc(Nc2c3ccc(NC(=O)CCN4CCCC4)cc3nc3cc(NC(=O)CCN4CCCC4)ccc23)cc1
6.80: pIC50 (second compound 0.1 µM)
6.85: pIC50 (second compound 10 µM)
inactive: viability, T/C (second compound 0.0316 µM, first compound 0.000999 µM) 105% | viability, T/C (second compound 0.0316 µM, first compound 0.00316 µM) 110% | viability, T/C (second compound 0.0316 µM, first compound 0.00999 µM) 109% | viability, T/C [1] 84.5% | viability, T/C (second compound 0.0316 µM, first compound 0.0999 µM) 56% | viability, T/C [2] 34.7% | viability, T/C (second compound 0.1 µM, first compound 0.000999 µM) 106% | viability, T/C (second compound 0.1 µM, first compound 0.00316 µM) 89.2% | viability, T/C (second compound 0.1 µM, first compound 0.00999 µM) 103% | viability, T/C [3] 88.8% | viability, T/C (second compound 0.1 µM, first compound 0.0999 µM) 57.7% | viability, T/C [4] 38.5% | viability, T/C (second compound 0.316 µM, first compound 0.000999 µM) 77.1% | viability, T/C (second compound 0.316 µM, first compound 0.00316 µM) 90.2% | viability, T/C (second compound 0.316 µM, first compound 0.00999 µM) 95.1% | viability, T/C [5] 79.1% | viability, T/C (second compound 0.316 µM, first compound 0.0999 µM) 60.4% | viability, T/C [6] 33.2% | viability, T/C (second compound 1 µM, first compound 0.000999 µM) 98.8% | viability, T/C (second compound 1 µM, first compound 0.00316 µM) 95.9% | viability, T/C (second compound 1 µM, first compound 0.00999 µM) 100% | viability, T/C [7] 88.1% | viability, T/C (second compound 1 µM, first compound 0.0999 µM) 57.8% | viability, T/C [8] 39.6% | viability, T/C (second compound 3.16 µM, first compound 0.000999 µM) 83.7% | viability, T/C (second compound 3.16 µM, first compound 0.00316 µM) 94.2% | viability, T/C (second compound 3.16 µM, first compound 0.00999 µM) 98.8% | viability, T/C [9] 83.6% | viability, T/C (second compound 3.16 µM, first compound 0.0999 µM) 51.4% | viability, T/C [10] 31.9% | viability, T/C (second compound 10 µM, first compound 0.000999 µM) 79.3% | viability, T/C (second compound 10 µM, first compound 0.00316 µM) 89.9% | viability, T/C (second compound 10 µM, first compound 0.00999 µM) 67.4% | viability, T/C [11] 73.4% | viability, T/C (second compound 10 µM, first compound 0.0999 µM) 55.3% | viability, T/C [12] 35.1%
6.89: pIC50 (second compound 0.0316 µM)
6.97: pIC50 (second compound 3.16 µM)
6.82: pIC50 (second compound 0.316 µM)
6.79: pIC50 (second compound 1 µM)

O=C(NO)c1cnc(N2CCN(S(=O)(=O)c3ccc4ccccc4c3)CC2)nc1 + CN(C)c1ccc(Nc2c3ccc(NC(=O)CCN4CCCC4)cc3nc3cc(NC(=O)CCN4CCCC4)ccc23)cc1
6.02: pIC50 (second compound 3.16 µM)
6.07: pIC50 (second compound 1 µM)
6.03: pIC50 (second compound 0.0316 µM)
active: viability, T/C (second compound 0.0316 µM, first compound 10 µM) 0.3% | viability, T/C (second compound 0.1 µM, first compound 3.16 µM) 8.7% | viability, T/C (second compound 0.1 µM, first compound 10 µM) 1.67% | viability, T/C (second compound 0.316 µM, first compound 10 µM) 2.03% | viability, T/C (second compound 1 µM, first compound 10 µM) 0.73% | viability, T/C (second compound 3.16 µM, first compound 10 µM) 0.96% | viability, T/C (second compound 10 µM, first compound 10 µM) 0.95%
5.89: pIC50 (second compound 0.1 µM)
5.97: pIC50 (second compound 0.316 µM)
inactive: viability, T/C [1] 103% | viability, T/C (second compound 0.0316 µM, first compound 0.1 µM) 89.5% | viability, T/C [2] 79.4% | viability, T/C (second compound 0.0316 µM, first compound 1 µM) 50.8% | viability, T/C (second compound 0.0316 µM, first compound 3.16 µM) 11.1% | viability, T/C [3] 91.5% | viability, T/C (second compound 0.1 µM, first compound 0.1 µM) 90.6% | viability, T/C [4] 83.5% | viability, T/C (second compound 0.1 µM, first compound 1 µM) 62.3% | viability, T/C [5] 86.8% | viability, T/C (second compound 0.316 µM, first compound 0.1 µM) 94.7% | viability, T/C [6] 76.6% | viability, T/C (second compound 0.316 µM, first compound 1 µM) 54.8% | viability, T/C (second compound 0.316 µM, first compound 3.16 µM) 10.9% | viability, T/C [7] 84.3% | viability, T/C (second compound 1 µM, first compound 0.1 µM) 80.8% | viability, T/C [8] 62.5% | viability, T/C (second compound 1 µM, first compound 1 µM) 54.2% | viability, T/C (second compound 1 µM, first compound 3.16 µM) 12% | viability, T/C [9] 86.3% | viability, T/C (second compound 3.16 µM, first compound 0.1 µM) 72.1% | viability, T/C [10] 65.9% | viability, T/C (second compound 3.16 µM, first compound 1 µM) 54% | viability, T/C (second compound 3.16 µM, first compound 3.16 µM) 10.9% | viability, T/C [11] 66% | viability, T/C (second compound 10 µM, first compound 0.1 µM) 65.3% | viability, T/C [12] 63.1% | viability, T/C (second compound 10 µM, first compound 1 µM) 50.4% | viability, T/C (second compound 10 µM, first compound 3.16 µM) 11.1%
6.00: pIC50 (second compound 10 µM)
